The MIC is the lowest concentration found to suppress growth. A higher MIC goes with a need for much substance.

In brackets after ≈: the same amount, converted by molar mass. Activity calls are given as the source filed them. No cut-off for these calls is given here. Where only a bound is given, the exact number is not on record here.

In the assay the test system is Moraxella catarrhalis. Nature of the assay: Antimicrobial activity against Moraxella catarrhalis FH6810 after 18 hrs by micro broth dilution assay. It counts as functional. (Dilution methods test growth across graded concentrations, often in twofold steps.)
For `CCCCCCCCC[C@H](O)CC(=O)N[C@H](CC(C)C)C(=O)N[C@H](CC(=O)O)C(=O)N[C@H]1C(=O)N[C@H](CC(C)C)C(=O)N[C@H](CC(C)C)C(=O)N[C@H](CO)C(=O)N[C@@H](CC(C)C)C(=O)N[C@H](CCC(N)=O)C(=O)N[C@@H](CC(C)C)C(=O)N[C@@H]([C@@H](C)CC)C(=O)N[C@@H](CCC(=O)O)C(=O)O[C@@H]1C`, the lowest concentration to inhibit growth (MIC) was 4 µg/mL (≈ 2.78 µM).

As to `CCCCCCC[C@H](O)CC(=O)N[C@H](CC(C)C)C(=O)N[C@H](CCC(=O)O)C(=O)N[C@H]1C(=O)N[C@H](CC(C)C)C(=O)N[C@H](CC(C)C)C(=O)N[C@H](CO)C(=O)N[C@@H](CC(C)C)C(=O)N[C@H](CCC(N)=O)C(=O)N[C@@H](CC(C)C)C(=O)N[C@@H]([C@@H](C)CC)C(=O)N[C@@H](CCC(=O)O)C(=O)O[C@@H]1C`, the minimal inhibitory concentration (MIC) was over 128 µg/mL. Take `CCCCC[C@H](O)CC(=O)N[C@H](CC(C)C)C(=O)N[C@H](CC(=O)O)C(=O)N[C@H]1C(=O)N[C@H](CC(C)C)C(=O)N[C@H](CC(C)C)C(=O)N[C@H](CO)C(=O)N[C@@H](CC(C)C)C(=O)N[C@H](CCC(N)=O)C(=O)N[C@@H](CC(C)C)C(=O)N[C@@H]([C@@H](C)CC)C(=O)N[C@@H](CCC(=O)O)C(=O)O[C@@H]1C`: the outcome was inactive. Molecule `CCCCCCC[C@H](O)CC(=O)N[C@H](CC(C)C)C(=O)N[C@H](CC(=O)O)C(=O)N[C@H]1C(=O)N[C@H](CC(C)C)C(=O)N[C@H](CC(C)C)C(=O)N[C@H](CO)C(=O)N[C@@H](CC(C)C)C(=O)N[C@H](CCC(N)=O)C(=O)N[C@@H](CC(C)C)C(=O)N[C@@H]([C@@H](C)CC)C(=O)N[C@@H](CCC(=O)O)C(=O)O[C@@H]1C` yielded a minimal inhibitory concentration (MIC) of 32 µg/mL (≈ 22.7 µM).

In turn, `CCCCCCC[C@H](O)CC(=O)N[C@H](CC(C)C)C(=O)N[C@H](CC(=O)O)C(=O)N[C@H]1C(=O)N[C@H](CC(C)C)C(=O)N[C@H](CC(C)C)C(=O)N[C@H](CO)C(=O)N[C@@H](CC(C)C)C(=O)N[C@H](CCC(N)=O)C(=O)N[C@@H](CC(C)C)C(=O)N[C@@H](CC(C)C)C(=O)N[C@@H](CCC(=O)O)C(=O)O[C@@H]1C` showed a minimal inhibitory concentration (MIC) of over 128 µg/mL. The same measure, in the same setting: then `CCCCCCC[C@H](O)CC(=O)N[C@H](CC(C)C)C(=O)N[C@H](CC(=O)O)C(=O)N[C@H]1C(=O)N[C@H](CC(C)C)C(=O)N[C@H](CC(C)C)C(=O)N[C@H](CO)C(=O)N[C@@H](CC(C)C)C(=O)N[C@H](CCC(N)=O)C(=O)N[C@@H](CC(C)C)C(=O)N[C@@H](C(C)C)C(=O)N[C@@H](CCC(=O)O)C(=O)O[C@@H]1C`, with over 128 µg/mL; and `CCCCC[C@H](O)CC(=O)N[C@H](CC(C)C)C(=O)N[C@H](CCC(=O)O)C(=O)N[C@H]1C(=O)N[C@H](CC(C)C)C(=O)N[C@H](CC(C)C)C(=O)N[C@H](CO)C(=O)N[C@@H](CC(C)C)C(=O)N[C@H](CCC(N)=O)C(=O)N[C@@H](CC(C)C)C(=O)N[C@@H](CC(C)C)C(=O)N[C@@H](CCC(=O)O)C(=O)O[C@@H]1C`, with over 128 µg/mL.

The values are drawn from ChEMBL document CHEMBL4665763, “Molecular Networking-Guided Discovery and Characterization of Stechlisins, a Group of Cyclic Lipopeptides from a Pseudomonas sp” (2020).
